Measurements published in US9096593B2, “Compounds and methods for kinase modulation, and indications therefor” (Plexxikon Inc., priority 2009, dated 2015).

Legend:
[1] = target: BCR-KIT/BaF3 cells (Homo sapiens, UniProt P10721); assay: BCR-KIT/BaF3 cell proliferation assay (ATPlite); type: cell-based; conditions: read-out: BCR/BaF3 (IC50 μM) Kit
How it was run: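 BCR-KIT/BaF3 cells plated at 10,000/well in G418-containing medium without IL-3/WEHI; MV-4-11 at 25,000/well in medium with 10% FBS. Compound given as 8-point 1:3 titration, top 10 μM final, 3 days at 37 °C. Viability read as ATPlite luminescence; IC50 from concentration curve.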

[2] = Turbidity assay of relative solubility in aqueous buffers; type: physicochemical; conditions: for turbidity threshold (L, M, H) 1.4: pH 1.4 as headed (method: SGF pH 1.5); for turbidity threshold (L, M, H) 4.5: pH 4.5 (SIF); for turbidity threshold (L, M, H) 6.8: pH 6.8 (SIF); for turbidity threshold (L, M, H) 7.4: pH 7.4 (HEPES)
How it was run: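 DMSO stocks (25 mM) were serially diluted 1:1 and spiked into SGF pH 1.5 (0.5M NaCl), SIF pH 4.5 and 6.8 (0.05M NaH2PO4) or HEPES pH 7.4 (10 mM HEPES, 150 mM NaCl). Absorbance was read at 490, 535 and 650 nm. Value is the concentration crossing OD 0.01, averaged over the three wavelengths.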

Chain of BCR-KIT/BaF3 cells (P10721 26-976 limits assumed, change not shown): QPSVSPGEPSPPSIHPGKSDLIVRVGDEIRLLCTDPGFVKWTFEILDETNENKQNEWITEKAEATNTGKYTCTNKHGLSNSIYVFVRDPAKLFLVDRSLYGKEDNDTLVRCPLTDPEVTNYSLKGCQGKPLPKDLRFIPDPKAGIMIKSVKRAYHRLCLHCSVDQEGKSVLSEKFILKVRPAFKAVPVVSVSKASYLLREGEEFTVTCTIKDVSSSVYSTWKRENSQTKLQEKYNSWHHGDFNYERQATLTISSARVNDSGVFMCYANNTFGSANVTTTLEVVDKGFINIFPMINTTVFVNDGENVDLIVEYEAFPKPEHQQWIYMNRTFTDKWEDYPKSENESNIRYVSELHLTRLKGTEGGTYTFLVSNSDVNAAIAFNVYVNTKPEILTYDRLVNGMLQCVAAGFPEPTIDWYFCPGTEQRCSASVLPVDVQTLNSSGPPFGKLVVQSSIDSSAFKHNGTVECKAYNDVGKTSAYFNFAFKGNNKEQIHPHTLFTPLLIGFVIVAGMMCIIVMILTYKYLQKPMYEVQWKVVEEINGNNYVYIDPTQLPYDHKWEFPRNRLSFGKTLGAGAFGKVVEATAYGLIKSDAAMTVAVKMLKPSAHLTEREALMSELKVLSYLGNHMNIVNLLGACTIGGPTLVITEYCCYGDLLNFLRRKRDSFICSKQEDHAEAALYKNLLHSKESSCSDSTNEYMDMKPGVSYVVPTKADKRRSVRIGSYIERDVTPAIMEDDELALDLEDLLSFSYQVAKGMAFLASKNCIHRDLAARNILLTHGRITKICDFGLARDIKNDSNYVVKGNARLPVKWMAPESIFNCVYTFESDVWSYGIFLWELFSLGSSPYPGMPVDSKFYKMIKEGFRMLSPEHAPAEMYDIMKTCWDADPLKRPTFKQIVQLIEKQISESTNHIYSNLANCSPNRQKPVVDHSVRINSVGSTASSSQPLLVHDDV

SMILES	IC50 [1] [µM]	turbidity threshold (L, M, H) 1.4 [2]	turbidity threshold (L, M, H) 4.5 [2]	turbidity threshold (L, M, H) 6.8 [2]	turbidity threshold (L, M, H) 7.4 [2]
COc1cnc2[nH]cc(Cc3ccc(NCc4cncc(F)c4)nc3F)c2c1 [Compound P-2028, [6-Fluoro-5-(5-methoxy-1H-pyrrolo[2,3-b]pyridin-3-ylmethyl)-pyridin-2-yl]-(5-fluoro-pyridin-3-ylmethyl)-amine]	> 0.1	H (high solubility if the threshold concentration is >250 μM)	M (moderate solubility if the threshold concentration is 31.3 μM to 250 μM)	M (moderate solubility if the threshold concentration is 31.3 μM to 250 μM)	M (moderate solubility if the threshold concentration is 31.3 μM to 250 μM)
COc1ccc(CNc2ccc(Cc3c[nH]c4ncc(C)cc34)c(F)n2)cn1 [Compound P-2029, [6-Fluoro-5-(5-methyl-1H-pyrrolo[2,3-b]pyridin-3-ylmethyl)-pyridin-2-yl]-(6-methoxy-pyridin-3-ylmethyl)-amine]	> 0.1	H (high solubility if the threshold concentration is >250 μM)	M (moderate solubility if the threshold concentration is 31.3 μM to 250 μM)	M (moderate solubility if the threshold concentration is 31.3 μM to 250 μM)	M (moderate solubility if the threshold concentration is 31.3 μM to 250 μM)
COc1cnc2[nH]cc(Cc3ccc(NCc4ccc(OC)nc4)nc3F)c2c1 [Compound P-2030, [6-Fluoro-5-(5-methoxy-1H-pyrrolo[2,3-b]pyridin-3-ylmethyl)-pyridin-2-yl]-(6-methoxy-pyridin-3-ylmethyl)-amine]	> 0.1	H (high solubility if the threshold concentration is >250 μM)	M (moderate solubility if the threshold concentration is 31.3 μM to 250 μM)	M (moderate solubility if the threshold concentration is 31.3 μM to 250 μM)	L (low solubility if the threshold concentration is <31.3 μM)
Cc1cnc2[nH]cc(Cc3ccc(NCc4ccc(C(F)(F)F)nc4)nc3F)c2c1 [Compound P-2031, [6-Fluoro-5-(5-methyl-1H-pyrrolo[2,3-b]pyridin-3-ylmethyl)-pyridin-2-yl]-(6-trifluoromethyl-pyridin-3-ylmethyl)-amine]	> 0.1	M (moderate solubility if the threshold concentration is 31.3 μM to 250 μM)	L (low solubility if the threshold concentration is <31.3 μM)	L (low solubility if the threshold concentration is <31.3 μM)	L (low solubility if the threshold concentration is <31.3 μM)
COc1cnc2[nH]cc(Cc3ccc(NCc4ccc(Cl)cc4)nc3F)c2c1 [Compound P-2032, (4-Chloro-benzyl)-[6-fluoro-5-(5-methoxy-1H-pyrrolo[2,3-b]pyridin-3-ylmethyl)-pyridin-2-yl]-amine]	< 0.1	M (moderate solubility if the threshold concentration is 31.3 μM to 250 μM)	L (low solubility if the threshold concentration is <31.3 μM)	L (low solubility if the threshold concentration is <31.3 μM)	L (low solubility if the threshold concentration is <31.3 μM)
COc1ccnc2[nH]cc(Cc3ccc(NCc4ccc(Cl)cc4)nc3F)c12 [Compound P-2037, (4-Chloro-benzyl)-[6-fluoro-5-(4-methoxy-1H-pyrrolo[2,3-b]pyridin-3-ylmethyl)-pyridin-2-yl]-amine]	> 0.1	M (moderate solubility if the threshold concentration is 31.3 μM to 250 μM)	L (low solubility if the threshold concentration is <31.3 μM)	L (low solubility if the threshold concentration is <31.3 μM)	L (low solubility if the threshold concentration is <31.3 μM)
COc1ccc(CNc2ncc(Cc3c[nH]c4ncc(Cl)cc34)cn2)cn1 [Compound P-2038, [5-(5-Chloro-1H-pyrrolo[2,3-b]pyridin-3-ylmethyl)-pyrimidin-2-yl]-(6-methoxy-pyridin-3-ylmethyl)-amine]	> 0.1	H (high solubility if the threshold concentration is >250 μM)	L (low solubility if the threshold concentration is <31.3 μM)	L (low solubility if the threshold concentration is <31.3 μM)	L (low solubility if the threshold concentration is <31.3 μM)
COc1ncccc1CNc1ccc(Cc2c[nH]c3ncccc23)c(F)n1 [Compound P-2045, [6-Fluoro-5-(1H-pyrrolo[2,3-b]pyridin-3-ylmethyl)-pyridin-2-yl]-(2-methoxy-pyridin-3-ylmethyl)-amine]	> 0.1	H (high solubility if the threshold concentration is >250 μM)	M (moderate solubility if the threshold concentration is 31.3 μM to 250 μM)	M (moderate solubility if the threshold concentration is 31.3 μM to 250 μM)	M (moderate solubility if the threshold concentration is 31.3 μM to 250 μM)
COc1ncccc1CNc1ccc(Cc2c[nH]c3ncc(C)cc23)c(F)n1 [Compound P-2052, [6-Fluoro-5-(5-methyl-1H-pyrrolo[2,3-b]pyridin-3-ylmethyl)-pyridin-2-yl]-(2-methoxy-pyridin-3-ylmethyl)-amine]	> 0.1	H (high solubility if the threshold concentration is >250 μM)	L (low solubility if the threshold concentration is <31.3 μM)	L (low solubility if the threshold concentration is <31.3 μM)	L (low solubility if the threshold concentration is <31.3 μM)
COc1ccc(CNc2ncc(Cc3c[nH]c4ncc(C)cc34)cn2)cn1 [Compound P-2057, (6-Methoxy-pyridin-3-ylmethyl)-[5-(5-methyl-1H-pyrrolo[2,3-b]pyridin-3-ylmethyl)-pyrimidin-2-yl]-amine]	> 0.1	H (high solubility if the threshold concentration is >250 μM)	L (low solubility if the threshold concentration is <31.3 μM)	L (low solubility if the threshold concentration is <31.3 μM)	M (moderate solubility if the threshold concentration is 31.3 μM to 250 μM)
COc1ncc(F)cc1CNc1ncc(Cc2c[nH]c3ncc(C)cc23)cn1 [Compound P-2061, (5-Fluoro-2-methoxy-pyridin-3-ylmethyl)-[5-(5-methyl-1H-pyrrolo[2,3-b]pyridin-3-ylmethyl)-pyrimidin-2-yl]-amine]	> 0.1	H (high solubility if the threshold concentration is >250 μM)	M (moderate solubility if the threshold concentration is 31.3 μM to 250 μM)	M (moderate solubility if the threshold concentration is 31.3 μM to 250 μM)	L (low solubility if the threshold concentration is <31.3 μM)
Cc1cnc2[nH]cc(Cc3ccc(NCc4cnccc4C(F)(F)F)nc3F)c2c1 [Compound P-2062, [6-Fluoro-5-(5-methyl-1H-pyrrolo[2,3-b]pyridin-3-ylmethyl)-pyridin-2-yl]-(4-trifluoromethyl-pyridin-3-ylmethyl)-amine]	> 0.1	H (high solubility if the threshold concentration is >250 μM)	L (low solubility if the threshold concentration is <31.3 μM)	L (low solubility if the threshold concentration is <31.3 μM)	L (low solubility if the threshold concentration is <31.3 μM)
COc1ncc(F)cc1CNc1ncc(Cc2c[nH]c3ncc(Cl)cc23)cn1 [Compound P-2064, [5-(5-Chloro-1H-pyrrolo[2,3-b]pyridin-3-ylmethyl)-pyrimidin-2-yl]-(5-fluoro-2-methoxy-pyridin-3-ylmethyl)-amine]	> 0.1	H (high solubility if the threshold concentration is >250 μM)	M (moderate solubility if the threshold concentration is 31.3 μM to 250 μM)	L (low solubility if the threshold concentration is <31.3 μM)	L (low solubility if the threshold concentration is <31.3 μM)
COc1cc(CNc2ccc(Cc3c[nH]c4ncc(C)cc34)c(F)n2)c(F)cn1 [Compound P-2071, (5-Fluoro-2-methoxy-pyridin-4-ylmethyl)-[6-fluoro-5-(5-methyl-1H-pyrrolo[2,3-b]pyridin-3-ylmethyl)-pyridin-2-yl]-amine]	> 0.1	M (moderate solubility if the threshold concentration is 31.3 μM to 250 μM)	L (low solubility if the threshold concentration is <31.3 μM)	L (low solubility if the threshold concentration is <31.3 μM)	L (low solubility if the threshold concentration is <31.3 μM)
